# Laboratory results as given in patent US20070110813A1, “Polycation-polyanion complexes, compositions and methods of use thereof” (priority 2005, published 2007).
# “Also recorded” adds a separate entry of the source. Like-named read-outs stand apart in the source and are kept apart here.
# Experiments:
# sheep lungs = format: in vivo
# Procedure: Polylysine was delivered to 12 pulmonary subsegments via a bronchoscope in a fibrin gel matrix at 100 mg, 30 mg and 10 mg per subsegment (groups 1, 2 and 3 in FIG. 1). The molecular weight of the polylysine used was 20,000-80,000 Da with an average molecular weight of 55,000 Da. A total of 10 sheep were thus treated.
# The characteristic lesion caused by polylysine is renal infarction, consistent with what has been reported in the literature for polycationic injury. In the animals tested with baseline normal renal function, renal damage resulting from cationic injury remains subclinical. […] Thus, these clinical pathology tests were not sufficiently sensitive to detect polycationic renal injury resulting from polylysine. Polycationic renal toxicity following pulmonary treatment is initiated and can be detected only at necropsy within days of treatment. […] The characteristic acute lesion appeared to be renal infarction with associated hemorrhage. Lesions occurred within days (3-7 days) of cationic exposure. Necropsy findings are the most sensitive markers of toxicity.
# 4 sheep were treated at 12 pulmonary subsegments each with a fibrin gel containing 100 mg chondroitin sulfate (Group 5 in FIG. 1). 2 animals were sacrificed at 8 days and the remaining 2 animals were sacrificed at 4 weeks. […] However, pulmonary responses in these animals were minimal, indicating poor efficacy.
# In a series of 4 sheep experiments (Group 6 in FIG. 1), in-situ precipitation of chondroitin sulfate and polylysine solutions was achieved as they exit a dual lumen catheter. Chondroitin sulfate was added to a fibrinogen solution to a final concentration of 20 mg/mL, while polylysine was added to a thrombin solution to a final concentration of 20 mg/mL. Both solutions were 5 mL and were injected through a dual lumen catheter into subsegments of sheep lungs for a total of 10 mL per subsegment.
# In a total of 4 sheep (Group 7 in FIG. 1), use of systemic heparin to complex polylysine in the circulation and reduce or prevent renal toxicity was attempted.
# Using this precipitation methodology, polylysine related renal toxicity was prevented over a broad polylysine concentration range from 1 mg/mL to 10 mg/mL at chondroitin sulfate concentration of 1 to 5 mg/mL (Groups 9 to 13 in FIG. 1).
# Lung volume reduction treatment was performed in 8 consecutive animals at 84 subseguential sites using a formulation containing 13 mg/mL of human fibrinogen, 5 mg/mL of sodium chondroitin sulfate, 5 mg/mL of poly-L-lysine, and polymerized in situ with 1000 U activated human thrombin (Group 13 in FIG. 1).
# rats = experiment: Lung volume reduction in rats, fibrin gel, lungs and kidneys evaluated after 1 week; format: in vivo; conditions: 200 U/mL thrombin
# Procedure: (§1) Three rats were treated with 5 mg/mL poly(Lys, Glu) to evaluate whether the copolymer could be used to modulate local and/or systemic toxicity. Treatments contained 28.6 mg/mL fibrinogen polymerized with 200 U/mL thrombin. All rats were anesthetized and intubated orotracheally. A dual lumen catheter was placed into a target site in the lung with bronchoscopic guidance. The reagents were injected into the lung and the catheter was removed. Each animal was allowed to recover from anesthesia, and returned to its cage. After 1 week, all animals were euthanized. The extent of pleural scarring was assessed prior to lung removal from the chest cavity. The lungs were then removed en bloc, fully inflated, and evaluated visually to assess the extent of local parenchymal inflammation and scarring produced by treatment. The kidneys were also harvested and evaluated for the presence of cortical lesions and infarctions which can develop as a consequence of systemic toxicity following polycation adminstration.
# as §1, with “4” for “Three”, “2.5” for “5”, “polyomithine and 3 were treated with 2.5 mg/mL polyomithine precipitated with 2.5 mg/mL chondroitin sulfate” for “poly(Lys, Glu)”, “precipitation” for “the copolymer”, “administration.” for “adminstration.”
# [1] = 100 mg/treatment in fibrin gel, 12 pulmonary subsegments (group 1)
# [2] = 10 and 30 mg/treatment in fibrin gel (groups 2 and 3)
# [3] = 2.5 mg/mL polyornithine in 28.6 mg/mL fibrinogen
# [4] = 5 mg/mL poly(Lys, Glu) in 28.6 mg/mL fibrinogen
substance,measurement,setting,value
chondroitin sulfate,pulmonary responses,"sheep lungs; fibrin gel containing 100 mg chondroitin sulfate, 12 subsegments (Group 5)",minimal
heparin,prevention of polylysine renal lesions,"sheep lungs; systemic heparin to complex polylysine in the circulation, 4 sheep (Group 7)",did not prevent renal lesions
poly-L-lysine [polylysine],lung injury,sheep lungs; [1],severe lung injury
same,renal toxicity,sheep lungs; [1],renal toxicity manifest as nephropathy and infarction
same,pulmonary responses,sheep lungs; [2],acceptable pulmonary responses
same,renal toxicity,sheep lungs; [2],associated with renal toxicity
same,"serum BUN or creatinine, urine analysis, urine protein-to-creatinine ratio",sheep lungs; animals with renal lesions at necropsy,No abnormalities
same,time of occurrence of renal lesions after cationic exposure,sheep lungs; renal infarction with associated hemorrhage,3 to 7 days
polyornithine,local toxicity,rats; [3],significant local toxicity
same,systemic toxicity,rats; [3],"systemic toxicity, manifest as renal lesions"
"poly(Lys, Glu) [copolymer]",local pulmonary lesions / efficacy as lung volume reduction agent,rats; [4],no significant local pulmonary lesions; also recorded: failed to demonstrate efficacy
same,"systemic toxicity, manifest as renal lesions",rats; [4],no incidence of systemic toxicity; also recorded: did not show any systemic toxicity
